{"source": "patent US7923429B2", "about": "“Treatment for CD5+ B cell lymphoma” (3M Innovative Properties Company, priority 2003, dated 2011)", "key": {"[1]": {"test_system": "lymphomatous skin deposits associated with chronic lymphocytic leukemia", "assay": "Topical treatment of lymphomatous skin deposits in a CLL patient", "format": "in vivo, human", "conditions": "topical IRM2; count at beginning 36×10^6 cells/mL", "excerpt": "A person was diagnosed with Rai Stage 0 CLL on the basis of a persistent elevated count of circulating monoclonal CD19^+ CD5^+ IgM^lo lymphocytes, determined by flow cytometry. CD38 was expressed by 45% of circulating CLL cells. The white blood cell counts at the beginning and end of treatment with IRM2 were 36×10^6 cells/mL and 45×10^5 cells/mL, respectively. Other systemic chemotherapy, steroids, or radiation had not been administered previously.\nAdditionally, the patient reported having recurrent nodular, erythematous lesions on their hands and arms for approximately eight years. The lesions were usually removed by treatment with liquid nitrogen. At the time they were diagnosed with CLL, they had several such lesions over their upper back (FIG. 8A) and arms. One lesion was biopsied and found to contain a diffuse atypical lymphoid dermal infiltrate consisting of many small, round lymphocytes, without epidermotropism.\nA 5% cream of IRM2 was applied to the affected area three times per week.\nAdministration of 5% IRM2 cream was increased to once per day."}, "[2]": {"test_system": "CLL cells", "assay": "Costimulatory molecule expression by activated CLL cells (flow cytometry)", "format": "cell-based, human", "method": "Blood samples: Heparinized blood (30-40 mL) was collected from consenting CLL patients (diagnosed by a persistent elevation of CD19^+CD5^+ IgM^lo lymphocytes (Rozman and Montserrat, New Engl. J. Med. 1995; 333:1052-1057)). All patients were untreated at the time of analysis. Protocols were approved by the appropriate Institutional Review Board.\nCell purification: CLL and T cells were isolated from fresh blood by negative selection (RosetteSep, StemCell Technologies, Vancouver, BC) as described by Gitelson et al. (Gitelson et al., Clin. Cancer Res. 2003; 99:1656-1665).\nActivation of CLL cells: Purified CLL cells (1.5×10^6 cells/mL) were cultured in serum-free AIM-V medium plus 2-mercaptoethanol (2-ME, 5×10^−5 M) (Sigma Chemical Co.) in 6- or 24-well plates (Becton-Dickinson Labware, Franklin Lake, N.J.) for 3-4 days at 37° C. in 5% CO2. CLL cells were activated by adding the Negative Control compound (1 μg/mL), IRM1 (1 μg/mL), IL-2 (5000 U/mL), PDB (100 ng/mL), or bryostatin ([…]), as appropriate.\nFlow cytometry: Cell staining was performed as described by Gitelson et al. (Gitelson et al., Clin. Cancer Res. 2003; 99:1656-1665).\nCLL cells from the indicated number of patients were cultured in IRM1 (1 μg/mL) for 3-4 days, and then assayed for expression of the costimulatory molecules indicated on the x-axis (at an intensity greater than the first decade of log fluorescence) of FIG. 1A. The percentage of cells that expressed each costimulatory molecule and the mean fluorescence intensity (MFI) of expression were measured by flow cytometry. The “fold-increase” was then calculated from the ratio of these measurements to the percentage and MFI of control cells cultured without activating agents. […]\nCLL cells were isolated and cultured alone or with IL-2 (5000 U/mL), IRM1 (1 μg/mL), or both IL-2 and IRM1 for 3-4 days. The expression of CD80, CD86, CD54, and CD83 was then determined by flow cytometry.\nCD80, CD83, CD54, and CD86 expression were then determined by flow cytometry."}, "[3]": {"test_system": "T cells from CLL patients", "assay": "Mixed lymphocyte response: T cell proliferation stimulated by activated, irradiated CLL cells", "format": "cell-based, human", "conditions": "CLL cells activated 3-4 days, MLR 5-6 days, alamar blue", "excerpt": "Mixed Lymphocyte Responses (MLRs): T cells were isolated from CLL patients and adjusted to 5×10^5 cells/mL in AIM-V medium. Activated CLL cells were washed at least 4 times to remove residual immunomodulators, irradiated (2500 cGy) and suspended at 5×10^5 cells/mL (or lower concentrations) in AIM-V. Responders and stimulators were then mixed in a 1:1 (vol:vol) ratio and cultured in 96-well round bottom plates (Becton Dickinson Labware, Franklin Lake, N.J.) without additional cytokines or serum. Proliferation was measured 4-6 days later using a colorimetric assay (Gitelson et al., Clin Cancer Res. 2003; 99:1656-1665; and Ahmed et al., J. Immunol. Methods. 1994; 170:211-224).\nCLL cells were purified from individual patients and cultured alone or with IL-2, IRM1, IL-2 and IRM1, PDB, PDB and IL-2, PDB and IRM1, or PDB, IL-2, and IRM1. After 3-4 days, these cells were harvested, washed extensively, irradiated (2500 cGy) and used to stimulate allogenic or autologous T cells from CLL patients (obtained at the same time as the CLL cells and rested in culture until added to the Mixed Lymphocytic Response (MLR) assay) after 5-6 days of culture, alamar blue was added and proliferation was measured in an optical density calorimetric microplate reader at wavelengths of 540 (reduced state) and 595 (oxidized state). […]"}, "[4]": {"test_system": "CLL cells", "assay": "Elimination of CLL cells by autologous T cells in co-culture", "format": "cell-based, human", "conditions": "alone or in combination with IL-2 and/or bryostatin; 1:1 CLL:T cells, 5 days", "method": "CLL cells and T cells were isolated from a CLL patient, suspended at concentrations of 10^6 cells/mL and mixed in a 1:1 ratio. The cell mixtures were cultured alone, or in the presence of IL-2, IL-2 and IRM1, bryostatin, bryostatin and IL-2, bryostatin and IRM1, or bryostatin, IL-2, and IRM1. In FIG. 5A, after 5 days, the percentages of CD5^+ CD19^+ tumor cells (indicated by the numbers in the right upper quadrants of the dot-plots) and CD5^+ CD19^− T cells were determined by flow cytometry. In FIG. 5B, these percentages and the total numbers of viable cells (determined by manual counting in a hemocytometer) were used to calculate the remaining absolute numbers of CLL cells in the cultures."}}}
{"molecule": "CC(C)Cn1cnc2c(N)nc3ccccc3c21", "note": "[IRM2, 1-(2-methylpropyl)-1H-imidazo[4,5-c]quinolin-4-amine]", "values": [{"measurement": "white blood cell count at end of treatment", "setting": "[1]", "result": "45×10^5 cells/mL"}]}
{"molecule": "poly (I:C) [reference compound]", "values": [{"measurement": "costimulatory molecule expression (CD80, CD86) by CLL cells", "setting": "[2]; 100 μg/mL, 48 hours", "result": "rarely affected"}]}
{"molecule": "CCCC(=O)O[C@@H]1[C@@H](C)[C@@]2(O)[C@@H](C=C(CO)C[C@]3(O)C(=O)C(C)=C[C@@H]23)[C@@H]2C(C)(C)[C@]12OC(=O)CCC", "note": "[PDB, Phorbol dibutyrate, reference compound]", "values": [{"measurement": "CD54 and ICOS-L expression", "setting": "[2]; PDB alone, 100 ng/mL", "result": "not affected greatly"}, {"measurement": "expression of 4-1BBL and PDL-1", "setting": "[2]; PDB alone, 100 ng/mL", "result": "increased"}, {"measurement": "CLL cells expressing CD83", "setting": "[2]; PDB alone, 100 ng/mL, 3-4 days", "result": "~90", "unit": "%"}, {"measurement": "number of CD80+ and CD86+ CLL cells", "setting": "[2]; PDB alone, 100 ng/mL, CD86+ more than CD80+", "result": "increased"}, {"measurement": "ability of activated CLL cells to stimulate T cell proliferation", "setting": "[3]", "result": "weak stimulators"}]}
{"molecule": "CCOCc1nc2c(N)nc3c(c2n1CC(C)(C)O)CCCC3.O", "note": "[IRM1, 4-amino-2-(ethoxymethyl)-α,α-dimethyl-6,7,8,9-tetrahydro-1H-imidazo[4,5-c]quinoline-1-ethanol hydrate]", "values": [{"measurement": "dependence of ICOS-L expression on signaling", "setting": "[2]; IL-2 5000 U/mL, IRM1 1 μg/mL", "result": "relatively independent"}, {"measurement": "expression of 4-1BBL and PDL-1", "setting": "[2]; IL-2 5000 U/mL, IRM1 1 μg/mL, less than CD80, CD86, CD54", "result": "increased somewhat"}, {"measurement": "effect on CD80 compared with effect on CD86", "setting": "[2]; IRM1 1 μg/mL", "result": "greater"}, {"measurement": "potency as single agent in increasing CD80 and CD86 expression, relative to IL-2", "setting": "[2]; IRM1 1 μg/mL vs IL-2 5000 U/mL, 3-4 days", "result": "more potent than IL-2"}, {"measurement": "CD80, CD86, and CD54 expression", "setting": "[2]; IRM1 1 μg/mL, 3-4 days", "result": "especially strong effects"}, {"measurement": "ICOS-L expression", "setting": "[2]; IRM1 1 μg/mL, 3-4 days", "result": "little effect"}, {"measurement": "MFI of CD80, CD86, CD54, and CD83", "setting": "[2]; IRM1 1 μg/mL, 3-4 days", "result": "increased the expression of all four"}, {"measurement": "expression of CD83, 4-1BBL, and PDL-1", "setting": "[2]; IRM1 1 μg/mL, 3-4 days", "result": "increased"}, {"measurement": "patients whose CLL cells showed increased expression of CD54, CD80, and CD86", "setting": "[2]; IRM1 1 μg/mL, 3-4 days, n=31", "result": "all patients studied"}, {"measurement": "percentage of CLL cells that expressed CD80 and CD86, and MFI of expression", "setting": "[2]; single agent, IL-2 5000 U/mL or IRM1 1 μg/mL, 3-4 days", "result": "increased"}, {"measurement": "killing of CLL cells by autologous T cells in vitro", "setting": "[4]", "result": "induced autologous T cells to kill CLL cells"}]}
{"molecule": "CC(C)Cn1cnc2c(O)nc3ccccc3c21", "note": "[Negative Control, 4-hydroxy-1-isobutyl-1H-imidazo[4,5-c]quinoline, reference compound]", "values": [{"measurement": "effects on CLL cells", "setting": "[2]; 1 μg/mL, 3-4 days culture", "result": "did not have measurable effects"}]}
